Among the data in US20220402935A1, “HETEROCYCLIC COMPOUND” (FIMECS, INC., priority 2019, published 2022) are IC50, DC50 and remaining binding values, retold here.

Counter-ions that a name gives are not always drawn.

Experiment [1] deals with T1, human XIAP_BIR3 domain purified protein (Homo sapiens, UniProt P98170).
T1 construct: purchased R & D
Description: XIAP binding inhibitory activity (HTRF, b-Smac ligand). As to conditions: second symbol of cell; read-out: XIAP binding inhibition IC50 value. The method in brief: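 HTRF competition between compound and C-terminally biotinylated Smac peptide AVPIAQK for His-tagged XIAP BIR3, both diluted to 90 nM before addition, in pH 7.5 HEPES/NaCl/BSA/Triton buffer. Eu-cryptate anti-His and streptavidin-XL665 added, ≥4 h at room temperature in the dark; inhibition % from 665/615 nm ratio versus no-compound wells.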

Experiment [2] concerns the target T2, IRAK-M (Homo sapiens, UniProt Q9Y616).
T2 sequence (Q9Y616 1-596): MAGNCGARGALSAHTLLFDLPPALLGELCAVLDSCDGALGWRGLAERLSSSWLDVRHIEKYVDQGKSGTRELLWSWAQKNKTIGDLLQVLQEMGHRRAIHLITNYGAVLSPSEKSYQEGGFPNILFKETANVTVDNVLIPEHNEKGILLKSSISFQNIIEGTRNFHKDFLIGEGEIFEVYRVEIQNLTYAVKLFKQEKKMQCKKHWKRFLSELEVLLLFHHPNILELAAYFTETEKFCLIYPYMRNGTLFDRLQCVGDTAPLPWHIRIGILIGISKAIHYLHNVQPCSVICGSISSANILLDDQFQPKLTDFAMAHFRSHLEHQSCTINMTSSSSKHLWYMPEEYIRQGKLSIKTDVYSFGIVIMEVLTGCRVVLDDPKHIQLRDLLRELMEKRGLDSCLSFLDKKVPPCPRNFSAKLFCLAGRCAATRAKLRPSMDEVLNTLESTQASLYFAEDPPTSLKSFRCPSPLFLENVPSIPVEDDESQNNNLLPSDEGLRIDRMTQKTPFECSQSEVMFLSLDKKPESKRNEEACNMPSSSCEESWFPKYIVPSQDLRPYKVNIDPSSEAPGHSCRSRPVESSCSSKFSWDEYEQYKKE
Description: In vitro degradation activity of target protein (IRAK-M ELISA in THP1 cells). The format is cell-based. Further details: host or cells: THP1 cells. The note with it: 24 hours, second symbol of cell, read-out: IRAK-M 50% degradation concentration (DC50 value). As for the experimental part:
In vitro degradation activities of target protein of the example compounds were evaluated using Enzyme-linked immuno-sorbent assay (ELISA) by the following assay steps. THP1 cells (ATCC, TIB-202) were cultured in RPMI-1640 supplemented with 10% FBS, lx sodium pyruvate, lx HEPES, D-(+)-glucose and 1% penicillin/streptomycin. THP1 cells were seeded at a density of 1×10^6 cells/well in 24-well plate and treated with DMSO control or test compound, and then incubated for 24 hours. The cells were collected and lysed on ice for 30 minutes in lysis buffer (PBS containing 0.1% Triton X-100) containing a protease inhibitor cocktail (Roche, Cat #11836170001). The lysates were sonicated for 30 sec ON/30 sec OFF for ten cycles and centrifuged for 10 minutes at 13k rpm at 4° C. Protein concentrations were determined by the BCA assay (Sigma, Cat #QPBCA-1KT). The ELISA assay was performed using the Human IRAK3/IRAKM/IRAK-M ELISA Kit (LifeSpan BioSciences, Cat #LS-F35271), and the protein levels of IRAK-M were evaluated according to the kit protocol. As to the IRAK-M degradation rate of test compounds, protein degradation rate (%) when the concentration of the test compound is […] described as A≥75%, 50%≤B<75%, 25%≤C<50%, D<25%, or 50% degradation concentration (DC50 value) described as A<0.03 μM, 0.03 μM≤B<0.1 μM, 0.1 μM≤C<0.3 μM, 0.3 μM≤D<1 μM, is shown in the table below.
For orientation: ELISA stands for enzyme-linked immunosorbent assay.

Experiment [3] has as its target T2, IRAK-M. Briefly: IRAK-M binding inhibitory activity (KINOMEscan active site-dependent competitive assay). On the set-up: purchased Eurofins Discover X. As to conditions: for IC50: second symbol of cell, read-out: IRAK-M binding inhibition IC50 value; for remaining binding at 1 µM: concentration of the test compound 1 μM, first symbol of cell, read-out: IRAK-M binding inhibition activity % Ctrl. The gist of the method:
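Readout given as % Ctrl, with DMSO as 100% and a control compound as 0%, scaling the test compound signal between them. Binding to human IRAK-M was assessed by KINOMEscan competition at the kinase active site.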

T1 sequence (P98170 252-356 limits assumed): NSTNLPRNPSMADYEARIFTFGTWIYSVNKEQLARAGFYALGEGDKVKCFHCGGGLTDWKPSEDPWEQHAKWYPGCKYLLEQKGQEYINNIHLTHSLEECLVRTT

By IC50 is commonly meant the concentration that inhibits the measured activity by half. Consider `CN[C@@H](C)C(=O)N[C@H](C(=O)N1CCN(C(=O)c2cc3cc(F)c(F)cc3n2CC(=O)N2CCC[C@H]2COc2cc(CN3CCC(Oc4ccnc5ccsc45)CC3)on2)[C@@H](C)C1)C1CCCCC1` [Example 27, (S)-N-((S)-1-Cyclohexyl-2-((S)-4-(5,6-difluoro-1-(2-oxo-2-((S)-2-(((5-((4-(thieno[3,2-b]pyridin-7-yloxy)piperidin-1-yl)methyl)isoxazol-3-yl)oxy)methyl)pyrrolidin-1-yl)ethyl)-1H-indole-2-carbonyl)-3-methylpiperazin-1-yl)-2-oxoethyl)-2-(methylamino)propanamide], for which the IC50 was 3000 to 30000 nM in experiment [1] and 300 to 1000 nM in experiment [3]. The DC50 in experiment [2] was under 30 nM.
On the same counts, the results for `CN[C@@H](C)C(=O)N[C@H](C(=O)N1CCN(C(=O)c2c(C(=O)N(C)CCOCCOCCOc3cc(CN4CCC(Oc5ccnc6ccsc56)CC4)on3)c3cc(F)c(F)cc3n2C)CC1)C1CCCCC1` [Example 1, 2-(4-((S)-2-Cyclohexyl-2-((S)-2-(methylamino)propanamido)acetyl)piperazine-1-carbonyl)-5,6-difluoro-N,1-dimethyl-N-(2-(2-(2-((5-((4-(thieno[3,2-b]pyridin-7-yloxy)piperidin-1-yl)methyl)isoxazol-3-yl)oxy)ethoxy)ethoxy)ethyl)-1H-indole-3-carboxamide hydrochloride] are 300 to 3000 nM, 300 to 1000 nM and 300 to 1000 nM.
For `CN[C@@H](C)C(=O)N[C@H](C(=O)N1CCN(C(=O)c2c(F)c3cc(F)ccc3n2CC(=O)N(C)CCOCCOCCOCCOc2cc(CN3CCC(Oc4ccnc5ccsc45)CC3)on2)CC1)C1CCCCC1` [Example 36, (S)-N-((S)-1-cyclohexyl-2-(4-(3,5-difluoro-1-(3-methyl-2-oxo-14-((5-((4-(thieno[3,2-b]pyridin-7-yloxy)piperidin-1-yl)methyl)isoxazol-3-yl)oxy)-6,9,12-trioxa-3-azatetradecyl)-1H-indole-2-carbonyl)piperazin-1-yl)-2-oxoethyl)-2-(methylamino)propanamide], in experiment [1], the IC50 was 3000 to 30000 nM. The DC50 in experiment [2] was in the range of 300 to 1000 nM. In addition, the remaining binding at 1 µM in experiment [3] lay within 25 to 50%.
On the same counts, the results for `CN[C@@H](C)C(=O)N[C@H](C(=O)N1CCN(C(=O)c2cc3cc(F)c(F)cc3n2CC(=O)N2CCOC[C@H]2COc2cc(CN3CCC(Oc4ccnc5ccsc45)CC3)on2)CC1)C1CCCCC1` [Example 44, (S)-N-((S)-1-cyclohexyl-2-(4-(5,6-difluoro-1-(2-oxo-2-((S)-3-(((5-((4-(thieno[3,2-b]pyridin-7-yloxy)piperidin-1-yl)methyl)isoxazol-3-yl)oxy)methyl)morpholino)ethyl)-1H-indole-2-carbonyl)piperazin-1-yl)-2-oxoethyl)-2-(methylamino)propanamide] are 3000 to 30000 nM, 300 to 1000 nM and 25 to 50%.
For `CN[C@@H](C)C(=O)N[C@H](C(=O)N1CCN(C(=O)c2c(Cl)c3cc(F)ccc3n2CC(=O)N2CCC[C@H]2COc2cc(CN3CCC(Oc4ccnc5ccsc45)CC3)on2)CC1)C1CCCCC1` [Example 40, (S)-N-((S)-2-(4-(3-chloro-5-fluoro-1-(2-oxo-2-((S)-2-(((5-((4-(thieno[3,2-b]pyridin-7-yloxy)piperidin-1-yl)methyl)isoxazol-3-yl)oxy)methyl)pyrrolidin-1-yl)ethyl)-1H-indole-2-carbonyl)piperazin-1-yl)-1-cyclohexyl-2-oxoethyl)-2-(methylamino)propanamide], in that order: 3000 to 30000 nM, 300 to 1000 nM and 25 to 50%.
